pIC50, pKi: −log10 of the molar value.
Assays:
[1] = test system: HIF ODD-luc reporter (HIF PHD-controlled stability); experiment: HTS with cell-based HIF ODD-luciferase reporter (SH-SY5Y-ODD-luc cells); parameters: species or system human; conditions: three hours; for activation at 10 µM: Homo sapiens, 3 h, read-out: reporter activation (%) relative to ciclopirox (100%) and DMSO (0%)
From the text: For HTS, a cell-based reporter system was employed. The cell-based reporter system was generated by fusing HIF-1a oxygen degradable domain (ODD) to luciferase (Safran M. et al., PNAS, 2006, 103, 105-110), which represents a cell-based capture assay monitored by the consumption of the luciferase-labeled HIF substrate under the conditions more physiological than in vitro test tubes. In accord with their structure activity relationship in reporter assay, the best “hits” stabilize HIF1, upregulate known HIF target genes in a human neuronal line, and exert neuroprotective effects in established model of oxidative stress in cortical neurons.
The reporter cell lines constitutively expressing ODD-luc (human neuroblastoma, SH-SY5Y) were stable for more than one year without significant change in their response to canonical PHD inhibitors such as DFO, dihydroxybenzoate (DHB), dimethyloxalylglycine (DMOG), and ciclopirox (FIG. 1B). In order to verify the specificity of luciferase changes as an assay for PHD activity, several control lines were developed: the control line expressing ODD-luc with proline 564 and 567 mutated to Ala generates luciferase fusion that cannot be degraded and experimentally identifies a ceiling level of ODD-luc protein attainable in these cells. The background signal for the wild-type HIF ODD-luc line (PYIP) corresponds to approximately 5-6% of the ODD-luc levels in the control line AYIA (double mutant P564A/P567A line) (FIG. 2). Treatment with 10 μM ciclopirox results in a 10-fold increase of a background signal for the wild-type ODD-luc reporter (PYIP line), i.e. reaches almost 50% of the threshold value (FIG. 2).
The assay was optimized for HTS format to provide Z values above 0.7. SH-SY5Y-ODD-luc cells were plated into 384—well white flat-bottom plates at 7,000 cell/well in 30 μl of serum and incubated overnight at 37° C., 5% CO2. The next day, compounds were added to a final concentration of 10 μM, plates were incubated for three hours at 37° C., and luciferase activity was measured using SteadyGlo™ reagent (Promega). Each plate had two internal standards, ciclopirox (100%), and DMSO (0%). The reporter activation (%) was calculated as a ratio (L−LDMSO)/(Lciclopirox−LDMSO). Hits were defined as those >25%. HTS of 85,000 compounds was performed at Rockefeller HTS Resource Center. 295 hits from the initial screen have been tested in quadruplicate, 160 were confirmed. Classification into 10 structural clusters has been done manually; 25 hits were singletons.

[2] = test system: HIF ODD-luc reporter (HIF PHD-controlled stability); experiment: ODD-luc reporter, concentration titration and kinetics of reporter activation (extended SAR); type: cell-based, human; conditions: for pKi: linear plot 1/(K0−v) vs inhibitor concentration, read-out: apparent inhibition constant from time course of reporter activation
From the text: The HIF ODD-luciferase reporter system is controlled by the rate of PHD catalyzed reaction, and from an enzyme kinetics point of view, it is a “capture assay” monitored by the consumption of a substrate, the heterologously expressed HIF ODDluciferase fusion protein. In the kinetic regime, i.e. monitoring the time-course of luminescence changes (FIG. 3A), the ODD-luc reporter system permits quantitative characterization of promoter capacity (Ko, rate of fusion protein generation), enzyme activity, and inhibition constant determination.
The rate of fusion accumulation equals the rate of its production (Ko) minus the rate of the rate-limiting step, controlled by HIF PHDs, which obeys Michaelis-Menten kinetics, as follows: v=d[ODDluc]/dt=K0−k1[PHD][ODDluc]/{Km(1+[I]/K1)+[ODDluc]} (Eq.1)
The background luminescence signal calibrated with recombinant luciferase allows an estimation of the steady-state concentration of the ODD-luc fusion protein. Under the conditions used the steady-state value of 60 rlu (relative light units) corresponds to 1 pg luciferase protein; dividing this number by the total cell volume taken as a single cell volume (233μ^3) multiplied by 30,000 cells/well density (number of cells in a 96 well dish), the ODD-luc fusion protein steady-state concentration is found to be equal to 2.3 nM, which is well below all reported Km values for HIF1 (Dao, J. H., et al., Anal Biochem 384, 213-223 2009; Hewitson, K. S., et al., Methods Enzymol 435, 25-42 2007; Koivunen, P., et al., J Biol Chem 281, 28712-28720 2006; Tuckerman, J. R., et al., FEBS Lett 576, 145-150 2004. Therefore, it is preferable to work under nonsaturating conditions with respect to HIF substrate, i.e. optimal conditions for selecting inhibitors competitive against HIF substrate. Moreover, as compared to the in vitro assay, which uses a 19 amino acid peptide fragment surrounding the oxygen dependent domain (ODD), the instant ODD-luciferase construct contains 123 amino acid acids, and thus, more closely emulates the behavior of native HIF. The initial concentration of fusion can be considered much lower than Km, and thus, can be ignored in the rate equation: v=d[ODDluc]/dt=K0−k1[PHD][ODDluc]/Km(1+[I]/K1) (Eq.2)
Knowing the capacity of the promoter, the inhibition constant can be determined, but not the inhibition type, from the initial rates of signal accumulation at varied fixed concentrations of potential inhibitor. The capacity of promoter, K0 can be determined under the conditions of total inhibition of PHD activity by means of complete iron deprivation achieved in the presence of high concentrations of ciclopirox, i.e. when the increase in the ciclopirox concentrations give no further increase in the rate of luciferase signal growth (FIG. 3B). […]

[3] = Iron binding by calcein displacement from its iron complex; type: physicochemical
Experimental: The iron chelation ability is determined by displacement of calcein from its complex with iron monitored by fluorescence (excitation 490 nm, emission 523 nm, cut-off 515 nm) on a Spectramax M5e platereader (Molecular Devices). The apparent binding constant for calcein (ca.50 nM) was determined from Fe titration curve for 1 μM calcein in 5 mM Tris-HCl buffer, pH 7.5. The ratio between the iron binding constant for calcein and a particular compound, i.e., KQ/KCa, was estimated by fitting the titration curve into the dependence of [Fe]o vs. Y, where Y═[Ca—Fe]/[Ca] is a ratio of calcein-bound Fe to free (fluorescent) calcein: [Fe]o=KCaY+[Ca]oY/(Y+1)+[Q]oY/(Y+KQ/KCa) (Eq.4)
The association rate constant was determined as the second order rate constant for calcein displacement from its complex with iron (1 μM:1 μM) upon addition of an oxyquinoline (5-20 μM) calculated from the slope of a linear plot of the initial rate of calcein release vs. the concentration of oxyquinoline added. All experiments were performed in triplicates or more. All values are presented as mean±S.E.M.

| Compound | reporter activation in HTS, in words ([1]; 10 μM) | activation at 10 µM ([1]; SH-SY5Y-ODD-luc) [%] | further results |
| --- | --- | --- | --- |
| C[C@@](Cc1ccc(O)c(O)c1)(NN)C(=O)O [carbidopa, reference compound] | not |  |  |
| Oc1c(Cl)cc(Cl)c2cccnc12 [chloroxine, reference compound] | comparable |  |  |
| CCOC(=O)c1ccc(O)c(O)c1 [DHB, Ethyl-3,4-dihydroxybenzoate] |  |  | concentration at which the reporter is activated ([2]; FIG. 1B): > 50 µM; pKi [2]: 3.28 |
| Oc1cccc(CN2CCCn3cccc3C2c2ccc(F)cc2)c1O (stereo not drawn) [3-((1-(4-fluorophenyl)-4,5-dihydro-1H-pyrrolo[1,2-a][1,4]diazepin-2(3H)-yl)methyl)benzene-1,2-diol] |  | 40 |  |
| N[C@H](Cc1ccc(O)c(O)c1)C(=O)O [D-dopa, reference compound] | not |  |  |
| O=C1/C(=C\c2ccc(O)c(O)c2)SC(=S)N1c1ccccc1 [VI, (E)-5-(3,4-dihydroxybenzylidene)-3-phenyl-2-thioxothiazolidin-4-one] |  | 38 |  |
| Cc1cc(C2CCCCC2)n(O)c(=O)c1 [ciclopirox, reference compound] |  |  | fold reporter activation over background ([1]; 10 μM, SH-SY5Y-ODD-luc): 10 fold |
| NNc1nc(-c2ccccc2)cc(-c2ccccc2)n1 [II, 2-hydrazinyl-4,6-diphenylpyrimidine] |  | 64 | fold reporter activation over background ([1]; 10 μM, SH-SY5Y-ODD-luc): 6.7 fold; iron binding / chelation ability in solution, in words [3]: no iron chelation properties in solution |
| CC(C)n1c(S)nnc1-c1nccc2ccccc12 [V, 4-isopropyl-5-isoquinolin-1-yl-4H-[1,2,4]triazole-3-thiol] | close to that for the internal standard | 90 |  |
| NCCc1ccc(O)c(O)c1 [dopamine, reference compound] | not |  |  |
| FC(F)(F)c1ccccc1-n1c(S)nnc1-c1nccc2ccccc12 [5-isoquinolin-1-yl-4-(2-trifluoromethyl-phenyl)-4H-[1,2,4]triazole-3-thiol] | close to that for the internal standard |  |  |
| Oc1c(Br)cc(Br)c2cccnc12 [broxyquinoline, reference compound] | comparable |  |  |
| S=C(Nc1ccccc1)Nc1nccs1 [III, 1-phenyl-3-(1,3-thiazol-2-yl)thiourea] |  | 41 | fold reporter activation over background ([1]; 10 μM, SH-SY5Y-ODD-luc): five-fold |
| O=C(CCl)c1ccc(O)c2ncccc12 [chloroacetoquinoline] | comparable to 8-hydroxyquinoline itself |  |  |
| Oc1c(I)cc(Cl)c2cccnc12 [clioquinol, reference compound] | comparable |  |  |
| O=C1/C(=N\Nc2nccs2)C(c2ccccc2)=NN1c1ccccc1 [I, (Z)-1,3-diphenyl-4-(thiazol-2-yl-hydrazono)-1H-pyrazol-5(4H)-one] |  | 86 |  |
| CC1=NN(c2ccccc2)C(=O)C1 [edaravone, reference compound] | no reporter activation |  |  |
| COC(=O)CNC(=O)C(=O)OC [DMOG, dimethyloxalylglycine] |  |  | pKi [2]: 2.89 |
| Oc1cccc(CN2CCN(CCOC(c3ccccc3)c3ccc(F)c(F)c3)CC2)c1O (stereo not drawn) [3-((4-(2-((3,4-difluorophenyl) (phenyl)methoxy)ethyl)piperazin-1-yl)methyl)benzene-1,2-diol] |  | 60 |  |
| O=C1/C(=N\Nc2nc3ccccc3s2)C(c2ccccc2)=NN1c1ccccc1 [(Z)-4-(benzo[d]thiazol-2-ylhydrazono)-1,3-diphenyl-1H-pyrazol-5(4H)-one] |  | 70 |  |
| O=C(Nc1nnc(-c2cccc(Br)c2)s1)C1CCCN1 (stereo not drawn) [IV, N-[5-(3-bromophenyl)-[1,3,4]thiadiazol-2-yl]pyrrolidine-2-carboxamide] |  | 35 |  |
| CCC(C)C(N)C(=O)Nc1nnc(-c2ccc(Br)cc2)s1 (stereo not drawn) [2-amino-N-(5-(4-bromophenyl)-[1,3,4]thiadiazol-2-yl)-3-methylpentanamide] | no reporter activation at all |  |  |
| N[C@@H](Cc1ccc(O)c(O)c1)C(=O)O [L-Dopa, reference compound] |  | 21 | fold reporter activation over background ([1]; 10 μM, SH-SY5Y-ODD-luc): 3 fold; pIC50 ([2]; Homo sapiens, ODD-luc reporter): 4.82 |
| O=C(C=C(O)c1ccccc1)c1ccccc1O [2′β-dihydroxychalcone] |  |  | fold reporter activation over background ([1]; 10 μM, SH-SY5Y-ODD-luc): 7.5 fold; reporter activation (%) relative to ciclopirox (100%) and DMSO (0%) ([1]; 10 μM, SH-SY5Y-ODD-luc): 71% |
| COc1ccc(-c2nnc(NC(=O)C(N)Cc3ccccc3)s2)cc1 (stereo not drawn) [2-amino-N-(5-(4-methoxy-phenyl)-[1,3,4]thiadiazol-2-yl)-3-phenylpropanamide] | no reporter activation at all |  |  |
